Assay results: PubChem BioAssay AID179 (DTP/NCI, 2004)
Several values for one entry are separate records, joined by “and”; a condition that tells them apart may be missing. Equal values may be shown once. Activity calls are given as the source filed them.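 The calls were made as follows: active = compounds giving half or more protection of infected cells from virus-caused growth loss, again on retest; inactive = the rest.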

Tested on: CEM cells HIV-1 protection, formazan growth assay
Assay: NCI AIDS Antiviral Assay
Details: for IC50: measured here: growth of uninfected CEM cells
Method in brief: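 Protection of CEM cells against HIV-1 was scored from cell growth (soluble formazan) across five concentrations, with parallel uninfected cells. Lack of protection may reflect toxicity.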

SMILES	EC50 [µM]	IC50	outcome
CC(=O)N1N=C(c2c(O)ccc3ccccc23)CC1C(=O)c1ccco1 (stereo unspecified)	> 200	35.5 µM	–
CC(=O)N1CN=C2Sc3ccccc3N2C1	> 200	> 200 µM	–
NC1(C(=O)O)CSSC1	–	10.7 µM and 8.71 µM	–
CC(=Nc1ccccc1C(=O)[O-])c1c([O-])ccc2c(C)cc(=O)oc12.[Ni+2].[OH3+]	> 2.51	> 2.51 µM	–
O=S(=O)(O/C1=C/CCCCCC1)C(F)(F)F	> 100	> 100 µM	–
CCOC(=O)C(C)(C)Oc1ccc2c(C)c(-c3ccc(Cl)cc3)c(=O)oc2c1	> 12.9	> 12.9 µM	–
CN1CCc2c(sc3nc(Nc4ccccc4)n(N)c(=O)c23)C1	> 200	93.3 µM	–
C[n+]1cn(C2=C([O-])c3ccccc3C(=O)/C2=N\S(=O)(=O)c2ccccc2)c2ccccc21	> 151	126 µM	–
CCCCCCCCCCCC[N+]12CC[N+](C)(CC1)CC2	> 251	14.8 µM	–
C[Si]12OCCCN(CCO1)CCO2	–	–	inactive
COc1ccc(C(C)(O)c2cc3ccccc3n2S(=O)(=O)c2ccccc2)cc1 (stereo unspecified)	> 200	16.2 µM	–
CCc1nnc2c3cc4ccccc4n3cnn12	> 151	> 151 µM	–
CN(C)Cc1cc(C(=O)/C=C/c2ccccc2)cc(CN(C)C)c1O	> 200	25.1 µM	–
Cc1ccc(-n2cc(-c3ccc(Cl)cc3)c3c(=N)n(N)cnc32)cc1	> 100	13.5 µM	–
Cc1c(-c2coc(-c3ccc(Cl)cc3)n2)c(=O)n(-c2ccccc2)n1C	> 51.3	> 51.3 µM	–
O=C(Nc1nc2c(=O)[nH]cnc2s1)c1ccccc1	> 200	> 200 µM	–
Cc1ccc(/C=C/C(=O)Oc2ccc(/C=C3\CCC/C(=C\c4ccc(OC(=O)/C=C/c5ccc(C)cc5)cc4)C3=O)cc2)cc1	> 100	> 100 µM	–
COc1cc(OC)c2c(=O)c(OC)c(-c3ccc4c(c3)OCO4)oc2c1OC	> 200	> 200 µM	–
COc1ccc(/C(=N/NC(=O)NN)C(c2ccc(OC)cc2)C2(O)CNc3c(Cl)cc(Cl)cc32)cc1 (stereo unspecified)	> 9.77	> 9.77 µM	–
NC1=NC(=O)C(c2ccccc2)S1 (stereo unspecified)	> 676	> 676 µM	–
CC/C(=C(\c1ccccc1)c1ccc(OCC[N+](C)(C)C)cc1)c1ccccc1	–	–	inactive
Cn1cccc1/C=N/N=C(/N)NO	–	–	inactive

SMILES	EC50 [µM]	IC50	outcome
CC(=O)N1c2ccccc2C2=NN=C(N(C)C)SC21 (stereo unspecified)	–	–	inactive
CNC(=S)NNC(=O)c1c(C)nc2sccn12	> 933	575 µM	–
OC12C3C4CC5C(C4[C@@H]1Br)C2[C@@](O)(c1c(F)c(F)c(F)c(F)c1F)C53 (stereo partly specified)	> 200	69.2 µM	–
NC(CCCCNC(=O)C(Cc1ccccc1)NC(=O)OCc1ccccc1)C(=O)NC(CCCCNC(=O)C(Cc1ccccc1)NC(=O)OCc1ccccc1)C(=O)NC(CCCCNC(=O)C(Cc1ccccc1)NC(=O)OCc1ccccc1)C(=O)NC(CCCCNC(=O)C(Cc1ccccc1)NC(=O)OCc1ccccc1)C(=O)NC(CCCCNC(=O)C(Cc1ccccc1)NC(=O)OCc1ccccc1)C(=O)NC(CCCCNC(=O)C(Cc1ccccc1)NC(=O)OCc1ccccc1)C(=O)O (stereo unspecified)	> 50.1	> 50.1 µM	–
O=[N+]([O-])c1ccc(-n2nnc(C3=NCCCN3)c2-c2ccc(Cl)cc2)cc1	1.38	148 µM	–
CC1CC(=O)Nc2ccc(N=NN(C)C)cc2N1C=O (stereo unspecified)	> 200	> 200 µM	–
Cc1ccc(C(=O)Cc2nc3c([nH]c2=O)c(C)nn3-c2ccccc2)c(C)c1	> 200	> 200 µM	–
CCCCNC1=C(C(=O)OCC)C(=O)CO1	> 794	447 µM	–
COc1ccc2oc(=S)[nH]c2c1	> 200	> 200 µM	–
COc1cc2c(cc1OC)C(CN)C2 (stereo unspecified)	> 1070	30.9 µM and 20 µM	–
COC(O)C(=O)c1c2c(cc3c1CC1(Cc4cc5c(cc4C1)CCC5)C3)CCC2 (stereo unspecified)	> 200	33.1 µM	–
CC(C)(C)OC(=O)N/N=C(/N)c1ccccc1	> 200	> 200 µM	–
Nc1ccc(I)cn1	> 200	> 200 µM	–
CC1OC(OC2C(Oc3cc(O)c4c(c3)OC(c3ccc(O)cc3)CC4=O)OC(CO)C(O)C2O)C(O)C(O)C1O (stereo unspecified)	> 200	> 200 µM	–
CCOC(=O)NN(C(=O)OCC)c1ccc(N=Nc2ccc(OC)cc2)n1C	> 200	26.9 µM	–
Cc1nc(NCCNCCO)nc2c1C(=O)Nc1ccccc1N2	> 200	32.4 µM	–
CCOC(=O)/C(C=Nc1c(C)n(C)n(-c2ccccc2)c1=O)=C(/O)c1ccccc1	> 200	> 200 µM	–
O=C1c2ccc(O)cc2OC(c2ccc(O)c(O)c2)C1O (stereo unspecified)	> 200	93.3 µM	–
CCOc1ccc(/C=C2/C(=O)N=C(NC(C)=O)N2C)cc1	> 200	> 200 µM	–
CCOC(=O)c1ccc(Nc2cnc3cc(C(F)(F)F)ccc3n2)cc1	> 200	141 µM	–
NCCCNCCSSCCNCCCN	> 200	10.5 µM	–
